1 substance from US20080317723A1, “LYMPHATIC ENDOTHELIAL CELLS MATERIALS AND METHODS” (VEGENICS LIMITED, priority 2001, published 2008) can be followed below.

In one test the target is T1, VEGFR-1/EpoR (Homo sapiens, UniProt P17948).
T1 construct: a chimeric receptor containing the extracellular domain of human VEGFR-1, VEGFR-2 or VEGFR-3 fused with the transmembrane and cytoplasmic domains; expressed in transfected cells
Put plainly: Ba/F3 bioassay, viability (MTT) of VEGFR-1/EpoR cells. It counts as cell-based. As to conditions: FIG. 1A. How it is done:
FIG. 1A-FIG. 1C. Analysis of the receptor-specificities of different VEGFs using the Ba/F3 bioassay. Measurement of the viability of Ba/F3 cells expressing the chimeric receptors VEGFR-1/EpoR (FIG. 1A), VEGFR-2/EpoR (FIG. 1B) or VEGFR-3/EpoR (FIG. 1C) in the presence of different VEGFs at indicated concentrations. Cell viability was determined using the MTT assay. Data represent the mean values from triplicate assays (mean±s.d.). FIG. 1D-FIG. 1G. Biosensor analysis of the interaction of VEGF-C (FIG. 1D, FIG. 1E) and VEGF-C156S (FIG. 1F, FIG. 1G) with VEGFR-3 (FIG. 1D, FIG. 1F) and VEGFR-2 (FIG. 1E, FIG. 1G). Chimeric receptor proteins were immobilized onto a carboxymethylated dextran surface. Growth factors were injected over the surface at a flow rate of 20 μl/min at the indicated concentrations. The sensorgrams shown have been subtracted with the corresponding signal obtained when the same sample was passed over a blank control channel.
Bioassay for VEGFR stimulation. […]
VEGF is an endothelial cell mitogen which has been also shown to protect endothelial cells from starvation and TNF-a induced apoptosis via activation of VEGFR-2 (Gerber et al, J. Biol. Chem., 273:30336-30343, 1998; Spyridopoulos et al., J. Mol. Cell. Cardiol., 29:1321-1330, 1997). […] The specificities of the growth factors used were determined using a cell survival bioassay. […]

A further test concerns CREB. Put plainly: CREB Ser133 phosphorylation in HMVE cells, Western blot. It counts as cell-based, human. As to conditions: HMVECs. How it is done:
Western blot analysis. Endothelial cells were cultured on 35 mm dishes to near confluence, starved for 24 h in serum free medium and stimulated as indicated. Wortmannin ([…]), LY294002 ([…]), PD98059 (10-25 μM) or GF109203X (2.5-5 μM) were added 1-3 h before stimulation, where indicated. DMSO, into which the inhibitors were dissolved, was used as a control. After the stimulation, the cells were lysed in lysis buffer (50 mM HEPES, pH 7.5, 150 mM NaCl, 10 mM EDTA, 100 mM NaF, 1% TritonX-100 supplemented with 2 mM Na3VO4, 0.5 mM PMSF, 100 U/ml approtinin and 10 μg/ml leupeptin). Clarified lysates were separated by SDS-PAGE, transferred to nitrocellulose and immunoblotted using the phosphospecific antibodies for Akt-Ser473, Akt-Thr308, p42/44 MAPK-Thr202/Tyr204 or CREB-Ser133. The bound antibodies were detected using horseradish peroxidase conjugated secondary antibodies and enhanced chemiluminescence detection system. The blots were stripped and reprobed with antibodies against Akt, MAPK or CREB for quantification by reading the optical densities of the signals with Multi-Analyst 2.0.1 program (Bio-Rad).
The p42/p44 MAPK activation was detected by Western blotting using phospho-Thr202/Tyr204-MAPK specific antibodies and CREB phosphorylation using phospho-Ser133 specific antibodies. The growth factor concentrations used were: VEGF 10 ng/ml, VEGF-C 100 ng/ml and VEGF-C156S 500 ng/ml. […] Effects of inhibition of protein kinase C by GF109203X, MEK1 by PD98059 and PI-3 kinase by LY294002 on p42/p44 MAPK Thr202/Tyr204 phosphorylation, CREB Ser133 phosphorylation and Akt Ser473 phosphorylation in HMVE cells. The growth factor concentrations used were: VEGF 1 ng/ml, VEGF-C 10 ng/ml and VEGF-C156S 500 ng/ml
(In general: Immunoblotting shows a protein as a band on a membrane.)

T1 sequence (P17948 27-758 limits assumed): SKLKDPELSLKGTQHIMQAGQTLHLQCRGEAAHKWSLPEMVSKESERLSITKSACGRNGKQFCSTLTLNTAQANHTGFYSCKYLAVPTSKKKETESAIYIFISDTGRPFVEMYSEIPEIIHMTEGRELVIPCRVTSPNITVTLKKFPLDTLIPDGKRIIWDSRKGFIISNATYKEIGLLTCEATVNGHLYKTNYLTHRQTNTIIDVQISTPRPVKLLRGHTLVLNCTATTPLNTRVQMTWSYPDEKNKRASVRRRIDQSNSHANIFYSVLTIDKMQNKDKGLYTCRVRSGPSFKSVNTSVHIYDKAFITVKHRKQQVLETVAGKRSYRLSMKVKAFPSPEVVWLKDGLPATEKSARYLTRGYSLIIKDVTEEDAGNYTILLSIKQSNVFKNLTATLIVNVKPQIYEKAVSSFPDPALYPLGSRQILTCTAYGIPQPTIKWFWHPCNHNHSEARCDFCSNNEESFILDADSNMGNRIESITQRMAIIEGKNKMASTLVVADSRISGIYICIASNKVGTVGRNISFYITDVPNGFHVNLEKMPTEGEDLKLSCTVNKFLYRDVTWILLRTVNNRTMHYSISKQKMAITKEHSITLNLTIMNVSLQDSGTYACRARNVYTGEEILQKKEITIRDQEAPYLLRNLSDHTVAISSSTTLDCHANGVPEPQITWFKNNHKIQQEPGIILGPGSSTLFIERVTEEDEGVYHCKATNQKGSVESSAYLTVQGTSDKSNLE

As for VEGF, the “survival of VEGFR-1/EpoR cells” value on VEGFR-1/EpoR is recorded as “able to induce the survival of VEGFR-1/EpoR cells”. Moreover, the “CREB phosphorylation on growth factor stimulation” value with CREB is “detected”.
